# Laboratory results: US20110039879A1, “METHODS FOR INCREASING WHITE BLOOD CELLS” (FibroGen ,Inc., priority 2007, published 2011)
# Experiments:
# Type in all cases: in vivo, Swiss-Webster mice
# neutrophils [1] = assay: Neutrophils by complete blood count on day 8, dosing day 1, 3, 5; details: mice, oral gavage, measured on day 8
# monocytes = assay: Monocytes by complete blood count on day 8, dosing day 1, 3, 5; details: mice, oral gavage, measured on day 8
# lymphocytes = assay: Lymphocytes by complete blood count on day 8, dosing day 1, 3, 5; details: mice, oral gavage, measured on day 8
# Procedure: (§1) To examine the effect of compounds and methods of the present invention on increasing white blood cells, the following studies were performed. In one series of experiments, male Swiss-Webster mice were administered various compounds of the present invention via oral gavage using a ball-tipped gavage needle. […] Animals were dosed once daily for 3 or 4 days. Six hours after the final dosing, 200 μl blood samples were collected and total white blood cell, neutrophil, and lymphocyte levels were measured by complete blood count (CBC) using a CellDyn cell analyzer (Abbott Laboratories).
# (§2) In another series of experiments, male Swiss-Webster mice were administered various compounds (see Table 7 and Table 8) of the present invention via oral gavage using a ball-tipped gavage needle. […] Total WBC, neutrophil, lymphocyte, and monocyte levels were measured in mice as described above on day 8 following administration of compound on day 1, day 3, and day 5.
# [2] = system: total white blood cell (WBC); assay: Total white blood cells by complete blood count on day 8, dosing day 1, 3, 5; details: Mus musculus, 192 h, mice, oral gavage, measured on day 8, read-out: Total WBC % Increase Over Control; for change in vivo at 100 mg/kg: 100 mg/kg on day 1, day 3 and day 5
# Procedure: as §1, §2
# neutrophils [3] = assay: Neutrophils by complete blood count on day 8, dosing day 1, 3, 5; details: Mus musculus, Neutrophil, 192 h, mice, oral gavage, measured on day 8, read-out: Neutrophils % Increase Over Control; for change in vivo at 100 mg/kg: 100 mg/kg on day 1, day 3 and day 5
# Procedure: as §1, §2
# [4] = system: total white blood cell (WBC); assay: Total white blood cells by complete blood count on day 8, dosing day 1, 3, 5; details: mice, oral gavage, measured on day 8
# [5] = 20 mg/kg on day 1, day 3 and day 5
# [6] = 100 mg/kg on day 1, day 3 and day 5
# [7] = Mus musculus, Lymphocyte, 192 h, 100 mg/kg on day 1, day 3 and day 5, read-out: Lymphocytes % Increase Over Control
# [8] = 60 mg/kg on day 1, day 3 and day 5
# [9] = 200 mg/kg on day 1, day 3 and day 5
smiles,measurement,setting,value
"Cc1cccc(Oc2cccc3c(C#N)nc(C(=O)NCC(=O)O)c(O)c23)c1 [Compound AY, {[1-Cyano-4-hydroxy-5-m-tolyloxy-isoquinoline-3-carbonyl]-amino}-acetic acid]",Neutrophils,neutrophils [1]; [5],0.7 10^3 cells/μl
same,change in vivo at 20 mg/kg,"monocytes; Mus musculus, Monocyte, 192 h, 20 mg/kg on day 1, day 3 and day 5, read-out: Monocytes % Increase Over Control",8%
same,Monocytes,monocytes; [5],0.2 10^3 cells/μl
same,change in vivo at 20 mg/kg,"lymphocytes; Mus musculus, Lymphocyte, 192 h, 20 mg/kg on day 1, day 3 and day 5, read-out: Lymphocytes % Increase Over Control",21%
same,Lymphocytes,lymphocytes; [5],6.5 10^3 cells/μl
same,change in vivo at 20 mg/kg,[2]; [5],19%
same,change in vivo at 20 mg/kg,neutrophils [3]; [5],9%
same,Total WBC,[4]; [5],7.5 10^3 cells/μl
"N#Cc1nc(C(=O)NCC(=O)O)c(O)c2c(Cl)cn(Cc3ccccc3C(F)(F)F)c12 [Compound AT, {[3-Chloro-7-cyano-4-hydroxy-1-(2-trifluoromethyl-benzyl)-1H-pyrrolo[2,3-c]pyridine-5-carbonyl]-amino}-acetic acid]",Neutrophils,neutrophils [1]; [6],0.8 10^3 cells/μl
same,change in vivo at 100 mg/kg,"monocytes; Mus musculus, Monocyte, 192 h, 100 mg/kg on day 1, day 3 and day 5, read-out: Monocytes % Increase Over Control",94%
same,Monocytes,monocytes; [6],0.2 10^3 cells/μl
same,change in vivo at 100 mg/kg,lymphocytes; [7],94%
same,Lymphocytes,lymphocytes; [6],8.5 10^3 cells/μl
same,change in vivo at 100 mg/kg,[2],81%
same,change in vivo at 100 mg/kg,neutrophils [3],27%
same,Total WBC,[4]; [6],9.4 10^3 cells/μl
"C[C@H](c1ccccc1)n1c(Cl)c(Cl)c2c(O)c(C(=O)NCC(=O)O)nc(C#N)c21 [Compound L, {[(R)-2,3-Dichloro-7-cyano-4-hydroxy-1-(1-phenyl-ethyl)-1H-pyrrolo[2,3-c]pyridine-5-carbonyl]-amino}-acetic acid]",Neutrophils,neutrophils [1]; [6],4.8 10^3 cells/μl
same,Monocytes,monocytes; [6],0.0 10^3 cells/μl
same,change in vivo at 100 mg/kg,lymphocytes; [7],262%
same,Lymphocytes,lymphocytes; [6],18.0 10^3 cells/μl
same,change in vivo at 100 mg/kg,[2],281%
same,change in vivo at 100 mg/kg,neutrophils [3],469%
same,Total WBC,[4]; [6],22.8 10^3 cells/μl
"O=C(O)CNC(=O)c1ncc2cc(Br)ccc2c1O [Compound T, [(7-Bromo-4-hydroxy-isoquinoline-3-carbonyl)-amino]-acetic acid]",Neutrophils,neutrophils [1]; [8],1.0 10^3 cells/μl
same,Monocytes,monocytes; [8],0.0 10^3 cells/μl
same,change in vivo at 60 mg/kg,"lymphocytes; Mus musculus, Lymphocyte, 192 h, 60 mg/kg on day 1, day 3 and day 5, read-out: Lymphocytes % Increase Over Control",13%
same,Lymphocytes,lymphocytes; [8],6.2 10^3 cells/μl
same,change in vivo at 60 mg/kg,[2]; [8],17%
same,change in vivo at 60 mg/kg,neutrophils [3]; [8],40%
same,Total WBC,[4]; [8],7.3 10^3 cells/μl
"N#Cc1nc(C(=O)NCC(=O)O)c(O)c2c(Cl)c(Cl)n(Cc3ccccc3)c12 [Compound Q, [(1-Benzyl-2,3-dichloro-7-cyano-4-hydroxy-1H-pyrrolo[2,3-c]pyridine-5-carbonyl)-amino]-acetic acid]",Neutrophils,neutrophils [1]; [9],2.5 10^3 cells/μl
same,change in vivo at 200 mg/kg,"monocytes; Mus musculus, Monocyte, 192 h, 200 mg/kg on day 1, day 3 and day 5, read-out: Monocytes % Increase Over Control",14%
same,Monocytes,monocytes; [9],0.1 10^3 cells/μl
same,change in vivo at 200 mg/kg,"lymphocytes; Mus musculus, Lymphocyte, 192 h, 200 mg/kg on day 1, day 3 and day 5, read-out: Lymphocytes % Increase Over Control",522%
same,Lymphocytes,lymphocytes; [9],36.0 10^3 cells/μl
same,change in vivo at 200 mg/kg,[2]; [9],475%
same,change in vivo at 200 mg/kg,neutrophils [3]; [9],233%
same,Total WBC,[4]; [9],38.7 10^3 cells/μl
"N#Cc1nc(C(=O)NCC(=O)O)c(O)c2cc(Oc3ccc(F)cc3)ccc12 [Compound D, {[1-Cyano-6-(4-fluoro-phenoxy)-4-hydroxy-isoquinoline-3-carbonyl]-amino}-acetic acid]",Neutrophils,neutrophils [1]; [6],1.3 10^3 cells/μl
same,Monocytes,monocytes; [6],0.2 10^3 cells/μl
same,change in vivo at 100 mg/kg,lymphocytes; [7],140%
same,Lymphocytes,lymphocytes; [6],9.3 10^3 cells/μl
same,change in vivo at 100 mg/kg,[2],152%
same,change in vivo at 100 mg/kg,neutrophils [3],242%
same,Total WBC,[4]; [6],10.8 10^3 cells/μl
